Results from article PMC9144902, “Metal(II) Complexes of the Fluoroquinolone Fleroxacin: Synthesis, Characterization and Biological Profile” (Pharmaceutics, 2022).

Legend:
EB–DNA adduct (CT DNA) = assay: Competitive study with EB (EB–DNA fluorescence quenching); format: binding, calf; details: for Ksv, Stern–Volmer constant: EB–DNA adduct; for ΔI/Io, percentage of EB–DNA fluorescence quenching: [EB] = 20 μM, [DNA] = 26 μM, λexc 540 nm, λem 592 nm; for EB–DNA relative fluorescence emission intensity, % of the initial (I/Io): λemission = 592 nm, final value (up to), Figure S14; for kq, EB–DNA quenching constant: τo = 23 ns
Protocol: Ethidium bromide is a typical marker of intercalation because it can intercalate between adjacent DNA bases with its planar phenanthridine ring.
The fluorescence emission spectra of the EB–DNA adduct ([EB] = 20 μM, [DNA] = 26 μM) in the absence and presence of the compounds were recorded at increasing amounts of the respective compounds. […] As a conclusion, an intercalative interaction of the complexes with CT DNA can be proposed.
The values of the Stern–Volmer constants (Ksv) for the compounds were calculated using the linear Stern–Volmer equation (Equation (S2)) and were of the order of 10^5 M^−1 (Table 8), indicating tight binding of the complexes with DNA [61]. The Ksv values for the complexes are in the range found for a number of metal(II)–quinolone complexes, and complex 12 presents the highest Ksv value (Ksv = 7.25(±0.30) × 10^5 M^−1) among the compounds studied. In addition, the EB–DNA quenching constants (kq) for the compounds were calculated with Equation (S3), assuming τo = 23 ns as the fluorescence lifetime. The values of kq (Table 8) are much higher than the value of 10^10 M^−1s^−1, indicating a static mechanism of EB–DNA fluorescence quenching induced by the compounds, which can result from the formation of a new adduct apparently consisting of each complex and DNA [61].
In order to determine and confirm the DNA–binding mode of the compounds, a competitive study with EB as an intercalating marker is performed b y fluorescence emission spectroscopy.
Therefo re, the E B–displacing abilit y of the compounds from its EB –DN A conjugate was ex amined.
The DNA–EB adduct was prepared b y addition of 20 μM EB and 26 μM CT DNA in buffer solution (150 mM NaCl and 15 mM trisodium citrate at pH 7.0). The potential intercalation of the compounds between the DNA–bases was studied by the addition of a certain amount of the compound solution into the EB–DNA adduct solution. The influence of the compounds on the EB – DNA solution was monitored through the changes of the fluorescence emission spectra at excitation […]
wavelen gth (λex ) at 540 nm [S3]. […]
room temperature in solution or in the presence of DNA, under the same experimental conditions (λex = 540 nm). Bearing t hat in mind, the observed quenching of the EB–DNA solution is evidentl y associated to the displacement of EB from its EB–DNA adduct.
The quenching effici ency (KSV) for each compound was assessed according to the Stern – Volmer equation: Io =1+ k τ [Q] = 1+ K [Q], (eq. S2) [S3] where I0 and I = the fluorescence […]
emission intensities of EB–DNA in the absence and presence of the quencher, respectivel y, [Q] = the concentration of the quencher (i.e. compounds). KSV is obtained from t he Stern–Volmer plots b y the slope of the diagram I0/ I versus [Q]. Taking τ0 = 23 ns as the fluorescence lifetime of the EB– DNA s ystem [S5], the EB –DNA quenching constants (k q) of the compounds can be determined accordin g to eq.S3: K SV = kqτo . […]
[S2] Irgi, E.P.; Geromichalos, G.D.; Balala, S.; Kljun, J.; Kalogiannis, S.; Papadopoulos, A.; Turel, I.; Psomas, G. Cobalt(II) complexes with quinolone antimicrobial drug oxolinic acid: […]
[ S 5] Heller, D.P.; Greenstock, C.L. Fluorescence lifetime analysis of DNA intercalated ethidium bromide and quenching by free d ye. Biophys. Chem . 1994, 50, 305–312.

CT DNA = assay: Study of the DNA-interaction by cyclic voltammetry; format: binding, calf; details: for Epa(f), anodic potential / Epc(f), cathodic potential / Epa(b), anodic potential / Epc(b), cathodic potential: M(II)/M(I), 1:2 DMSO/buffer; for Epa(f), anodic potential / Epc(f), cathodic potential: absence of CT DNA; for Epa(b), anodic potential / Epc(b), cathodic potential: presence of CT DNA; for Kr/Kox, ratio of equilibrium DNA-binding constants (reduced/oxidized form): eq. S6
Protocol: Cyclic voltammetry was used to study the interaction of the complexes with CT DNA. An intercalative interaction will induce a positive shift for the electrochemical potential(s) of metal oxidation/reduction, whereas, in the case of electrostatic interaction, a negative shift in the potential(s) may occur. The cyclic voltammograms of the complexes in a 1:2 DMSO:buffer solution (0.33 mM) were recorded in the absence and presence of the CT DNA solution (Figure S13). The predominant electrochemical feature for all complexes is a positive shift in the potential in the presence of CT DNA (ΔEpc/a = (–30)–(+127) mV). Consequently, the intercalative nature of the interaction of the complexes with DNA can be inferred from the presented data.
In order to evaluate further the redox behavior of the complexes, the corresponding equilibrium constants were calculated by determining the ratio Kr/Kox in accordance to Equation (S6), where Kox and Kr are the DNA-binding constants for the oxidized and reduced form, respectively, of the metal ions. For all complexes, the Kr/Kox ratio is close to or above 1 (Table 7), showing the selective binding of DNA to the […] form of the complexes. […]
S3.3 Study of the DNA –interaction by cyclic vol ta mmetry
Cyclic voltammetr y can be also used in order to calculate the corresponding equilibrium constant for the redox process. The ratio of the DNA–binding constants for the reduced (K r) and oxidized forms (Kox) of t he complex es (Kr/Kox) w as calculat ed according t o eq. S6:
Δ = = 0.059 × lo gEE E K oxoo o (eq. S6) […]
where Eo and Eo are the formal potentials of M(II)/M(I) redox couple in the fully bound and […]
free complexes, respectivel y. Kox and Kr are the binding constants for the binding of the oxidized and reduced species to DNA, respectivel y [S8] . […]

Compound	Ksv, Stern–Volmer constant (EB–DNA adduct (CT DNA))	ΔI/Io, percentage of EB–DNA fluorescence quenching (EB–DNA adduct (CT DNA)) [%]	EB–DNA relative fluorescence emission intensity, % of the initial (I/Io) (EB–DNA adduct (CT DNA)) [%]	kq, EB–DNA quenching constant (EB–DNA adduct (CT DNA))	Epa(f), anodic potential (CT DNA) [mV]	Epc(f), cathodic potential (CT DNA) [mV]	Epa(b), anodic potential (CT DNA) [mV]	Epc(b), cathodic potential (CT DNA) [mV]	Kr/Kox, ratio of equilibrium DNA-binding constants (reduced/oxidized form) (CT DNA)
CN1CCN(c2c(F)cc3c(=O)c(C(=O)[O-])cn(CCF)c3c2F)CC1.CN1CCN(c2c(F)cc3c(=O)c(C(=O)[O-])cn(CCF)c3c2F)CC1.[Co+2].c1ccc(-c2ccccn2)nc1 [complex 15, [Co(flrx)2(bipy)]]	4.69(±0.09) × 10^5 M^–1	80.4	19.6	2.04(±0.04) × 10^13 M^−1s^−1	−533	−701	−541	−695	0.98
CN1CCN(c2c(F)cc3c(=O)c(C(=O)[O-])cn(CCF)c3c2F)CC1.[Cl-].[Cu+2].c1ccc(-c2ccccn2)nc1 [complex 6, [Cu(flrx)(bipy)Cl]]	2.03(±0.05) × 10^5 M^–1	61.9	38.1	8.84(±0.21) × 10^12 M^−1s^−1	−450	−710	−323	−740	2.28
CN1CCN(c2c(F)cc3c(=O)c(C(=O)[O-])cn(CCF)c3c2F)CC1.CN1CCN(c2c(F)cc3c(=O)c(C(=O)[O-])cn(CCF)c3c2F)CC1.CO.CO.[Ni+2] [complex 5, [Ni(flrx)2(MeOH)2]]	2.33(±0.08) × 10^5 M^–1	56.9	43.1	1.01(±0.03) × 10^13 M^−1s^−1	−495	−706	−501	−701	0.99
CN1CCN(c2c(F)cc3c(=O)c(C(=O)[O-])cn(CCF)c3c2F)CC1.[Cl-].[Cu+2].c1cnc2c(c1)ccc1cccnc12 [complex 8, [Cu(flrx)(phen)Cl]]	3.25(±0.08) × 10^5 M^–1	66.4	33.6	1.41(±0.03) × 10^13 M^−1s^−1	−483	−725	−406	−720	2.00
CN1CCN(c2c(F)cc3c(=O)c(C(=O)[O-])cn(CCF)c3c2F)CC1.CN1CCN(c2c(F)cc3c(=O)c(C(=O)[O-])cn(CCF)c3c2F)CC1.[Mn+2].c1ccc(-c2ccccn2)nc1 [complex 9, [Mn(flrx)2(bipy)]]	3.31(±0.07) × 10^5 M^–1	73.8	26.2	1.44(±0.03) × 10^13 M^−1s^−1	−475	−701	−495	−684	0.97
